What was measured:
[1] = system: spinal cord injuries of adult male rats; assay: Spinal cord injuries of adult male rats: complete lumbar spinal cord transection, mini pump administration; type: in vivo, Sprague-Dawley rats
Experimental: Complete transections of the lumbar spinal cord under deep pentobarbiturate anesthesia were made to 40 adult male Sprague-Dawley rats. Osmotic mini pumps were implanted subcutaneously to allow continuous flow of the KDI peptide (KDI-group) used at pre-tested concentrations (10-100 μg/ml) or a placebo (placebo-group). Morphine was given to both of the groups to alleviate the postoperative pain. The animals underwent weekly tests of their motor function during a period of three months. The motor score testing was carried out using a standard set of tests of motor evaluation (walking, tow-spread, placing and withdrawal). The mini pumps initially provided the drugs for 30 days, and when feasible, additional experiments were carried out with prolonged (up to 3 months) application. After 3 months, the animals in each group were euthanized and spinal cords were either deep frozen for immunocytochemistry, biochemistry and RNA-work, or fixed in 4% paraformaldehyde for in situ hybridization and histological analysis of recovery. […]
Preliminary motor scores were obtained from animals treated with KDI, and from control animals. […] The scores for each animal were calculated by adding up the walking scores obtained within a 12 week follow-up-time after the operation. […] The scores of six animals in placebo-group and six-animals, in the KDI-group were analysed and statistically compared. […]

[2] = system: human embryonic spinal cord neurons; assay: Survival and neurite outgrowth of human embryonic spinal cord neurons on injured glial cells of the human spinal cord; type: cell-based; conditions: for survival (numbers) of spinal cord neurons on lesioned glial monolayers / numbers of spinal cord neurons extending long neurites (>100 μm): 72 hrs; for numbers of spinal cord neurons extending long neurites (>100 μm): lesioned glial monolayers
Text: (§1) The CNS tissues were first placed in cold saline. The spinal cord tissues were identified under a stereomicroscope, and carefully freed of meninges. To obtain monolayer cultures of human spinal cord glial cells, the cells were dissociated by mechanical trituration using a Pasteur-pipette, and placed in Petri dishes (Corning, N.Y., USA) containing 10% fetal calf serum (Hyclone, Logan, UH) in DMEM-F12 (Gibco, U.K.) supplemented with penicillin and streptomycin as described (Liesi et al. 2001).
Freshly isolated tissue from the human embryonic spinal cord (8-10 weeks of age) was mechanically dissociated and cells were plated at 50,000 on a 22 mm glass coverslip confluent with human embryonic spinal cord glia. The glial monolayers were injured using a 18 G needle prior to plating of the neurons. The cells were cultured in normal adult human serum for 72 hrs. The numbers of spinal cord neurons on the glial monolayers in the presence or absence of KDI (0.0355 μg/ml-1.0 μg/ml) was estimated on TUJ1-labelled cultures. The statistical analysis was performed using one-way-variance analysis (ANOVA), and the Student-Newman-Keuls multiple comparisons test.
Confluent cultures of the spinal cord glial cells were trypsinized using Trypsin-EDTA, and cells replated at a density of 5×10^4 on a 22 mm glass coverslip. The cells were cultivated until they formed confluent monolayers. At this point, their culture medium was changed into 10% normal adult human serum in DMEM-F12, and glial monolayers were injured using 18 G-needle. After injury, the KDI peptide (Multiple Peptide Systems, La Jolla, Calif., USA) was added into the culture medium after which a suspension of freshly dissociated cells from spinal cord or neocortex was added at 2×10^4 on one coverslip. After 24-48 hrs, the cultures were fixed in 2% paraformaldehyde in PBS, pH 7.4 for 15 min and immunostained for TUJ1 as described previously (Liesi et al., 2001).
Viability and neurite outgrowth of human CNS-neurons on the spinal cord glial cells were evaluated by counting 10 random fields of cells in 6 different cultures. A total of 265 cells were counted. The numbers of long neurites (>10 cell soma) were estimated similarly. One-way-variance analysis (ANOVA) was used to evaluate the results.

[3] = system: human embryonic neocortical neurons; assay: Survival of human embryonic neocortical neurons on injured glial cells of the human spinal cord; type: cell-based; conditions: 72 hrs
Text: as §1
Human embryonic spinal cord glial cells were cultured till confluency in 10% fetal bovine serum as described (Liesi et al., 2001). The confluent cultures were trypsinized and cells replated at 100 000 cells/22 mm glass coverslip, and grown till confluency. The confluent cultures were changed into normal adult human serum, and injured by using a 18 G gauge sterile needle. The KDI peptide was added at 1 μg/ml (3 μM) and at 10 μg/ml (30 μM) concentration and the P1543 peptide (p20) was added at a concentration of 1 μM, and 50-100 000 freshly isolated human embryonic neocortical neurons were added on the glial cells. The control cultures had neurons added either without the peptide or the lesion. The cells were cultured for 72 hrs in 5% CO2/95% air at +37° C., and fixed for quantitation of neurons and measurement of their neuritic lengths. The neurons on glial monolayers were visualized by immunostaining using mouse monoclonal antibodies against a neuron-specific tubulin isoform (TUJ1). The results were evaluated by counting neurons in six random fields on 3 different coverslip per experiment. In this way, more than 300 neurons were counted per experiment. Statistical analysis of the results was performed using one-way analysis of Varians (ANOVA) and Student-Newman-Keuls multiple comparisons test on the Instat (v2.03) program (GraphPad, San Diego, Calif.).

## KDI
[1]; adult rats three months after injury, stereomicroscopic images
  connective tissue scar at the dorsal pole of the spinal cord vs placebo: considerably smaller
[1]; rats with total spinal cord transection, 12 week follow-up, six animals, ±SEM, placebo 11±2.4, normal animal 120, P 0.0022, preliminary
  mean motor score (sum of walking scores): 78±5.8
[2]; 0.0355 μg/ml
  survival (numbers) of spinal cord neurons on lesioned glial monolayers: significantly (p<0.001) enhanced survival
[2]; 0.1 μg/ml in culture medium, 48 hrs
  neurite extension of TUJ1-immunoreactive spinal cord neuron on injured glial monolayers: extends a long neurite
[2]; 0.1 μg/ml
  survival (numbers) of spinal cord neurons on lesioned glial monolayers: significantly (p<0.001) enhanced survival
[2]; 0.1 μg/ml, p<0.001
  numbers of spinal cord neurons extending long neurites (>100 μm): significantly increased the numbers of long neurites
[2]; 0.5 μg/ml
  survival (numbers) of spinal cord neurons on lesioned glial monolayers: did not promote survival of the spinal cord neurons any better than the lesion by itself
[2]; 1.0 μg/ml
  survival (numbers) of spinal cord neurons on lesioned glial monolayers: did not promote survival of the spinal cord neurons any better than the lesion by itself
[2]; 1.0 μg/ml, vs lesion-control
  numbers of spinal cord neurons extending long neurites (>100 μm): significantly increased the numbers of long neurites
[3]; 1 μg/ml soluble peptide, vs lesion control
  attachment and neurite outgrowth of neocortical neurons on lesioned spinal cord glial cells: significantly (p<0.001) improved
[3]; 1 μg/ml
  improvement of attachment and neurite outgrowth of neocortical neurons compared to that induced by p20 (1 μg/ml): statistically significant
[3]; 10 μg/ml soluble peptide, vs unlesioned and lesioned controls
  neuronal survival (attachment and neurite outgrowth) of neocortical neurons on lesioned spinal cord glial cells: no statistical difference of neuronal survival

From US7741436B2, “Biologically active peptides and their use for repairing injured nerves” (priority 2001, dated 2010)
